Measurements: patent US5807671A (priority 1995, dated 1998)
Entries after “also recorded” stand apart in the source; their conditions may differ.

Assays:
BuChE normal = BuChE normal (Homo sapiens, UniProt P06276); assay type: biochemical
AChE E6 = AChE E6 (Homo sapiens, UniProt P22303); assay type: biochemical
AChE E5 = AChE E5 (Homo sapiens, UniProt P22303); assay type: biochemical
"atypical" serum BuChE = assay type: biochemical, human
AChE = assay type: biochemical, human
[1] = system: normal and "atypical" BuChE; assay type: biochemical, human
BuChE "atypical" = BuChE "atypical" (Homo sapiens, UniProt P06276, D98G)
Sequence of BuChE "atypical" (P06276 29-602 D98G limits assumed): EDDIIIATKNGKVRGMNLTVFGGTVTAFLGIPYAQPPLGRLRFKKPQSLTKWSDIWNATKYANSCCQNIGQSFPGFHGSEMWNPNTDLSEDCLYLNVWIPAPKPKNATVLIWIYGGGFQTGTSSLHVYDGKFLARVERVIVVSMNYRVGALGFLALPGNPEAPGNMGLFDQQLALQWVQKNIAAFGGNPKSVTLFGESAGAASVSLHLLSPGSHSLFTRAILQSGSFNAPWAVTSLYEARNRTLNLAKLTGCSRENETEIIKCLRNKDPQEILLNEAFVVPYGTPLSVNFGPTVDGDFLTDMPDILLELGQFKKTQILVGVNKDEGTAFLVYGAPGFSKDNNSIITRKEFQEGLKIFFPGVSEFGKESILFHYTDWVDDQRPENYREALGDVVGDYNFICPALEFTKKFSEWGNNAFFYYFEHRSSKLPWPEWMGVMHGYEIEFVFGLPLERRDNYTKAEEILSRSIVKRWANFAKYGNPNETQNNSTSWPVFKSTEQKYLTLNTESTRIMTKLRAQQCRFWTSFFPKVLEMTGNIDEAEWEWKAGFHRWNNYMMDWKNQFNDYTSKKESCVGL

[2] = biological target: diisopropylphosphoryl-BuChE (Homo sapiens, UniProt P06276); assay: biochemical
Sequence of diisopropylphosphoryl-BuChE (P06276 29-602): as the sequence (P06276 29-602 D98G limits assumed) above, with G70D counted along it

[3] = biological target: diisopropylphosphoryl-Chimera; assay type: biochemical, human
BuChE L^286 D = assay type: biochemical, human
BuChE L^286 Q = assay type: biochemical, human
BuChE L^286 R = assay type: biochemical, human
BuChE L^286 K = BuChE L^286 K (Homo sapiens, UniProt P06276, L314K); assay: biochemical; assay type: biochemical
Sequence of BuChE L^286 K (P06276 29-602 L314K limits assumed): as the sequence (P06276 29-602 D98G limits assumed) above, with G70D, L286K counted along it

BuChE F^329 R = assay type: biochemical, human
BuChE F^329 Q = assay type: biochemical, human
BuChE F^329 C = assay type: biochemical, human
BuChE F^329 D = assay type: biochemical, human
BuChE S^425 P = assay type: biochemical, human
BuChE D^70 G = assay type: biochemical, human
BuChE D^70 G + Y^114 H = assay type: biochemical, human
BuChE D^70 G + S^425 P = assay type: biochemical, human
[4] = system: BuChE D^70 G + Y^114 H + S^425 P; assay type: biochemical, human
[5] = biological target: diisopropylphosphoryl-AChE (E6) (Homo sapiens, UniProt P22303)
Sequence of diisopropylphosphoryl-AChE (E6) (P22303 32-614): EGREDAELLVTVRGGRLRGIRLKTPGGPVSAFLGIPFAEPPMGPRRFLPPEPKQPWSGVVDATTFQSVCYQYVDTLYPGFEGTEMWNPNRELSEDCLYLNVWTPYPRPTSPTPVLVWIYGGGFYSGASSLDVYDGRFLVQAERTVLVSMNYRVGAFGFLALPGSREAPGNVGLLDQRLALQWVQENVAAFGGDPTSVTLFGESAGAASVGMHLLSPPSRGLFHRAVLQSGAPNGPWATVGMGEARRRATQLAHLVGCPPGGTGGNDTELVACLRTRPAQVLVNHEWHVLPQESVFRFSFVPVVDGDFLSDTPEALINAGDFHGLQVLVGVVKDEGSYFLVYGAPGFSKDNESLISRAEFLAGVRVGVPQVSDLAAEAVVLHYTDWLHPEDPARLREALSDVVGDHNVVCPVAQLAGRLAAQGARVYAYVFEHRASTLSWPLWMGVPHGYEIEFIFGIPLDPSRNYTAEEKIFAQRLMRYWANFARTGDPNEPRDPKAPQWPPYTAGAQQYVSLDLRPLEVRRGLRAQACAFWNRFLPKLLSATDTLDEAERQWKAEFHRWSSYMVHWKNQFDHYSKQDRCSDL

[6] = biological target: diisopropylphosphoryl-AChE (E5) (Homo sapiens, UniProt P22303)
Sequence of diisopropylphosphoryl-AChE (E5) (P22303-4 with tags, fused parts or gaps limits assumed): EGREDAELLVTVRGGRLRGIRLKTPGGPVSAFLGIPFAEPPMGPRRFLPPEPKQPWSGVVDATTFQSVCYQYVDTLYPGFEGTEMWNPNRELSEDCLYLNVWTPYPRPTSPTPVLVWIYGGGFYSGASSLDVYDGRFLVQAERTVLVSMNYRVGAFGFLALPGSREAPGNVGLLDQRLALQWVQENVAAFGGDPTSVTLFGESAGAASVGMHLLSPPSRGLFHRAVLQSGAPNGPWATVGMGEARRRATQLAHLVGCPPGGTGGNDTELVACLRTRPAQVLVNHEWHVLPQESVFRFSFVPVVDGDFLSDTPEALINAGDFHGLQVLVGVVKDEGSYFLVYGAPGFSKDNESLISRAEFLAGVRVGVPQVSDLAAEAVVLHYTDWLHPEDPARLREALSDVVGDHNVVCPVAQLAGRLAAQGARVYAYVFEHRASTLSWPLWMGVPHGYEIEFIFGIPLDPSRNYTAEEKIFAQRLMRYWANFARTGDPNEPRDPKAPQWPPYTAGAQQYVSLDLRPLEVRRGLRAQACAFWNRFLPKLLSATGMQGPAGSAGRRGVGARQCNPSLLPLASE

[7] = biological target: purified diethylphosphoryl-BuChE; settings: cited from earlier work
[8] = human, in vivo, iv; cited from earlier work
normal serum BuChE = assay type: biochemical, human; settings: 30 min, 10 µM
[9] = system: BuChE from heterozygous serum; assay type: biochemical, human; settings: 30 min, 10 µM
[10] = system: ChEs (all of the examined enzymes); assay type: biochemical, human
serum BuChE = settings: in vivo; cited from earlier work
REM sleep = settings: in vivo; cited from earlier work
serum BuChE "atypical" = serum BuChE "atypical" (Homo sapiens, UniProt P06276, D98G)
Sequence of serum BuChE "atypical" (P06276 29-602 D98G limits assumed): as the sequence (P06276 29-602 D98G limits assumed) above

[11] = system: BuChE of heterozygotes / 1:1 mixture of normal and "atypical" BuChE
[12] = human, in vivo; cited from earlier work
Alzheimer's disease [13] = settings: in vivo; cited from earlier work
Parkinson's disease = settings: human, in vivo; cited from earlier work
"atypical" BuChE [14] = settings: cited from earlier work
"atypical" BuChE [15] = settings: cited from earlier work; remark: listed apart in the source
"atypical" BuChE [16] = settings: cited from earlier work; remark: listed apart in the source
Alzheimer's disease [17] = settings: in vivo; cited from earlier work; remark: listed apart in the source
[18] = in vivo
"atypical" BuChE [19] = assay type: biochemical, human
[20] = in vivo; remark: listed apart in the source
horse serum BuChE = settings: cited from earlier work

Sequence of AChE E6 (P22303 32-614): as the sequence (P22303 32-614) above
Sequence of AChE E5 (P22303-4 with tags, fused parts or gaps limits assumed): as the sequence (P22303-4 with tags, fused parts or gaps limits assumed) above
Sequence of BuChE normal (P06276 29-602): as the sequence (P06276 29-602 D98G limits assumed) above, with G70D counted along it

With `CCCCCCCNC(=O)Oc1ccc2c(c1)C1(C)CCN(C)C1N2C` (single isomer, unassigned) [N-heptyl physostigmine] the “inactivation rates of common BuChE compared with AChE” value (BuChE normal) was “higher than or equal to”, the “second order rate constants, ki, for inactivation” value (shortened to “second order rate constants, ki”) (BuChE normal) was 1.1 × 10^7 ± 0.3 × 10^7 and the “second order rate constants, ki” value (AChE E6) was 1.6 × 10^6. The “second order rate constants, ki” value (AChE E5) was 1.4 × 10^6, the “reaction of "atypical" BuChE with carbamates, compared with its normal counterpart” value (shortened to “reaction … compared with its normal counterpart”) ("atypical" serum BuChE) was “much slower” and the reactivation (AChE) was 5%. For the same compound, the original activity regained [1] was 10%, the “inactivation rates of "atypical" BuChE” value (BuChE "atypical") was “considerably lower rates” and the “second order rate constants, ki” value (BuChE "atypical") was 7.7 × 10^5 ± 4.4 × 10^5.

In the case of `C[n+]1ccccc1C=NO` [PAM, Pyridine-2-aldoxime methiodide], the Kd [2] is reported as 300 µM, the “Kr × 10^3” value [2] is reported as 220 ± 60 and the “k'r × 10^3” value [2] is reported as 150 ± 30. The “pseudo-first order rate constant for reactivation of DFP-inhibited BuChE, higher than AChE” value [2] was 25 fold, the Kd [3] was 340 ± 130 µM and the “Kr × 10^3” value [3] was 48 ± 20. The “k'r × 10^3” value [3] was 40 ± 18, the “reactivation rate constant lower than that of native BuChE” value [3] was 5 fold and the “k'r × 10^3” value (BuChE L^286 D) was 120 ± 30. The “k'r × 10^3” value (BuChE L^286 Q) was 120 ± 20, the “k'r × 10^3” value (BuChE L^286 R) was 6 ± 3 and the Kd (BuChE L^286 K) was > 5000 µM. For the same compound, the “Kr × 10^3” value (BuChE L^286 K) was 35 ± 27, the “k'r × 10^3” value (BuChE L^286 K) was 4 ± 1 and the “reduction in the pseudo-first order rate constant for reactivation” value (BuChE L^286 K) was 40 fold. For the same compound, the “k'r × 10^3” value (BuChE F^329 R) was 43, the “k'r × 10^3” value (BuChE F^329 Q) was 44 ± 15 and the “k'r × 10^3” value (BuChE F^329 C) was 14 ± 2. The “k'r × 10^3” value (BuChE F^329 D) was 8 ± 1, the “k'r × 10^3” value (BuChE S^425 P) was 134 ± 8 and the “k'r × 10^3” value (BuChE D^70 G) was 32 ± 4. For the same compound, the “reactivation rate lower than wild-type BuChE” value (BuChE D^70 G) was 5 fold, the “k'r × 10^3” value (BuChE D^70 G + Y^114 H) was 12 ± 5 and the “k'r × 10^3” value (BuChE D^70 G + S^425 P) was 11. For the same compound, the “k'r × 10^3” value [4] was 4 ± 1, the “Kr × 10^3” value [5] was 7 ± 3 and the “k'r × 10^3” value [5] was 6 ± 2. The “Kr × 10^3” value [6] was 10 ± 5, the “k'r × 10^3” value [6] was 8 ± 3 and the Kd [7] was 200 µM. For the same compound, the Cmax [8] was ≤ 40 µM.

With `CCN(C)C(=O)Oc1cccc([C@H](C)N(C)C)c1` [SDZ ENA-713] the “inactivation rates of common BuChE compared with AChE” value (BuChE normal) was “higher than or equal to”, the “second order rate constants, ki” value (BuChE normal) was 1.4 × 10^4 ± 0.3 × 10^4 and the “second order rate constants, ki” value (AChE E6) was 4.3 × 10^3. For the same compound, the “second order rate constants, ki” value (AChE E5) was 3.3 × 10^3, the “reaction … compared with its normal counterpart” value ("atypical" serum BuChE) was “much slower” and the “decrease in BuChE activity” value ("atypical" serum BuChE; serum, 30 min, 10 µM) was “about 40%”. For the same compound, the “loss of BuChE activity” value (normal serum BuChE) was 95%, the “loss of BuChE activity” value [9] was 80% and the reactivation levels [10] was ≤ 8%. The “inactivation rates of "atypical" BuChE” value (BuChE "atypical") was “considerably lower rates”, the “second order rate constants, ki” value (BuChE "atypical") was 4.7 × 10^2 ± 4.6 × 10^2 and the “serum BuChE activity” value (serum BuChE) was “transient drop in serum BuChE activity”. For the same compound, the “frequency of rapid eye movements during REM sleep” value (REM sleep) was “increase the frequency of rapid eye movements during REM sleep”.

With `Nc1c2c(nc3ccccc13)CCCC2` [Tacrine, 1,2,3,4-tetrahydro-9 aminoacridine] the “capacity of "atypical" BuChE to interact with tacrine, compared with the normal enzyme” value (serum BuChE "atypical") was “drastic reduction”, the “inhibition curves of mixtures of normal and "atypical" enzyme” value [11] was “expected intermediary inhibition curves” and the “inhibition in the presence of 1 μm tacrine” value [11] was “intermediate levels of activity”. The “serum BuChE activity” value (serum BuChE) was “transient drop in serum BuChE activity”, the “cases in which aminotransferase reached 20 times the upper limit of normal” value [12] was 2% and the “patients with severe cholinergic side-effects” value [12] was “over 10%”. The “serum alanine aminotransferase level in 2% of the cases” value [12] was 20 times the upper limit of normal, the “serum alanine aminotransferase level, usually” value [12] was “less than three times the upper limit of normal value” and the “improvement in Alzheimer's disease patients” value (Alzheimer's disease [13]) was “statistically significant, dose-related improvements”. The “symptoms of PD patient” value (Parkinson's disease) was “worsening of the symptoms”.

For `CC(=O)Oc1ccccc1C(=O)O` [aspirin], the “Km with "atypical" variant, higher than with usual enzyme” value (shortened to “Km with "atypical" variant, higher than”) ("atypical" BuChE [14]) is given as ~4 fold.

In the case of `CN(C)C(=O)Oc1cc(OC(=O)N(C)C)cc(C(O)CNC(C)(C)C)c1` (stereo not shown) [bambuterol], the “IC50, higher for "atypical" than wild-type BuChE” value ("atypical" BuChE [15]) is listed as “at least 10 fold” and the “Ki, higher for "atypical" than wild-type BuChE” value ("atypical" BuChE [15]) is listed as “at least 10 fold”.

In the case of `CCCCOc1cc(C(=O)NCCN(CC)CC)c2ccccc2n1` [dibucaine], the “hydrolysis by "atypical" BuChE” value ("atypical" BuChE [16]) is listed as “inability of the affected enzyme to hydrolyze”.

In the case of `CC(=O)Oc1ccc2c3c1O[C@H]1[C@@H](OC(C)=O)C=C[C@H]4[C@@H](C2)N(C)CC[C@@]341` [heroin], the “Km with "atypical" variant, higher than” value ("atypical" BuChE [14]) is given as 4 fold.

For `CC(C)NP(=O)(NC(C)C)OP(=O)(NC(C)C)NC(C)C` [iso-OMPA], the “sensitivity of the atypical variant to inhibitors” value ("atypical" BuChE [15]) is listed as “much less sensitive”.

For `CNC(=O)Oc1ccc2c(c1)[C@]1(C)CCN(C)[C@@H]1N2C` [physostigmine], the “inactivation rates of common BuChE compared with AChE” value (BuChE normal) was “higher than or equal to”, the “second order rate constants, ki” value (BuChE normal) was 3.8 × 10^5 ± 1.6 × 10^5 and the “reaction … compared with its normal counterpart” value ("atypical" serum BuChE) was “much slower”. For the same compound, the spontaneous reactivation (AChE) was “up to 90%”, the “inactivation rates of "atypical" BuChE” value (BuChE "atypical") was “considerably lower rates” and the “second order rate constants, ki” value (BuChE "atypical") was 2.6 × 10^4 ± 0.9 × 10^4. The “IC50, higher for "atypical" than wild-type BuChE” value ("atypical" BuChE [15]) was “at least 10 fold”, the “Ki, higher for "atypical" than wild-type BuChE” value ("atypical" BuChE [15]) was “at least 10 fold” and the “sensitivity of the atypical variant to inhibitors” value ("atypical" BuChE [15]) was “much less sensitive”. The “effect on cognitive functions” value (Alzheimer's disease [17]) was “small, short-term positive effect on cognitive functions”.

For `CCN(CC)CCOC(=O)c1ccc(N)cc1` [procaine], the “Km with "atypical" variant, higher than” value ("atypical" BuChE [14]) is given as 15 fold.

For `CN(C)C(=O)Oc1ccc[n+](C)c1` [pyridostigmine], the “second order rate constants, ki” value (BuChE normal) was 1.9 × 10^3 ± 0.2 × 10^3, the “second order rate constants, ki” value (AChE E6) was 2.2 × 10^4 and the “second order rate constants, ki” value (AChE E5) was 2.5 × 10^4. For the same compound, the “reaction … compared with its normal counterpart” value ("atypical" serum BuChE) was “much slower”, the reactivation (AChE) was 50% and the reactivation [1] was 10%. The “adverse symptoms under pyridostigmine” value [18] was “insomnia, weight loss and general fatigue, which worsened consistently, and a deep depression”.

For `C[N+](C)(C)CCOC(=O)CCC(=O)OCC[N+](C)(C)C` [succinylcholine], the “hydrolysis by serum BuChE of H. K.” value ("atypical" BuChE [19]) is listed as “totally incapable of hydrolyzing; also recorded: cannot hydrolyze”, the post-anesthesia apnea [20] is listed as “two hour post-anesthesia apnea” and the “hydrolysis by "atypical" BuChE” value ("atypical" BuChE [16]) is listed as “unable to hydrolyze; also recorded: inability of the affected enzyme to hydrolyze”. The “hydrolysis by horse serum BuChE” value (horse serum BuChE) was “will not hydrolyze”.
